From the NIST ThermoML archive (doi:10.1021/je900545v)
Numbers after ± are expanded uncertainties.

Assays:
[1] = xn = mol fraction of the nth substance listed; conditions: 298.15 K, 101 kPa, Liquid; for electrical conductivity: DDSJ-308A Conductometer
[2] = refractive index (Na D-line) (dimensionless); xn = mol fraction of the nth substance listed; conditions: 298.15 K, 101 kPa, Liquid
[3] = 298.15 K, 101 kPa, Liquid

Structure (SMILES): C=CCn1cc[n+](C)c1.[Cl-] [1-allyl-3-methylimidazolium chloride] + O
- electrical conductivity ([1]; x1 = 0.000171): 0.0795 ± 0.0079 S/m
- electrical conductivity ([1]; x1 = 0.000362): 0.169 ± 0.017 S/m
- electrical conductivity ([1]; x1 = 0.000553): 0.258 ± 0.026 S/m
- electrical conductivity ([1]; x1 = 0.000754): 0.345 ± 0.035 S/m
- electrical conductivity ([1]; x1 = 0.001151): 0.503 ± 0.05 S/m
- electrical conductivity ([1]; x1 = 0.001575): 0.665 ± 0.067 S/m
- electrical conductivity ([1]; x1 = 0.002478): 0.969 ± 0.097 S/m
- electrical conductivity ([1]; x1 = 0.003359): 1.24 ± 0.12 S/m
- electrical conductivity ([1]; x1 = 0.004859): 1.65 ± 0.17 S/m
- electrical conductivity ([1]; x1 = 0.006386): 2.66 ± 0.27 S/m
- electrical conductivity ([1]; x1 = 0.008102): 3.02 ± 0.3 S/m
- electrical conductivity ([1]; x1 = 0.009949): 3.29 ± 0.33 S/m
- electrical conductivity ([1]; x1 = 0.01179): 3.69 ± 0.37 S/m
- electrical conductivity ([1]; x1 = 0.01373): 3.94 ± 0.39 S/m
- electrical conductivity ([1]; x1 = 0.01765): 4.65 ± 0.47 S/m
- electrical conductivity ([1]; x1 = 0.02156): 5.33 ± 0.53 S/m
- electrical conductivity ([1]; x1 = 0.02565): 5.97 ± 0.6 S/m
- electrical conductivity ([1]; x1 = 0.02973): 6.23 ± 0.62 S/m
- electrical conductivity ([1]; x1 = 0.03394): 7.15 ± 0.72 S/m
- electrical conductivity ([1]; x1 = 0.04442): 6.83 ± 0.68 S/m
- electrical conductivity ([1]; x1 = 0.05536): 7.66 ± 0.77 S/m
- electrical conductivity ([1]; x1 = 0.06646): 7.92 ± 0.79 S/m
- electrical conductivity ([1]; x1 = 0.07857): 7.47 ± 0.75 S/m
- electrical conductivity ([1]; x1 = 0.09138): 7.2 ± 0.72 S/m
- electrical conductivity ([1]; x1 = 0.1143): 6.48 ± 0.65 S/m
- electrical conductivity ([1]; x1 = 0.1369): 5.67 ± 0.57 S/m
- electrical conductivity ([1]; x1 = 0.1616): 4.92 ± 0.49 S/m
- electrical conductivity ([1]; x1 = 0.1867): 4.13 ± 0.41 S/m
- electrical conductivity ([1]; x1 = 0.211): 3.91 ± 0.39 S/m
- electrical conductivity ([1]; x1 = 0.2245): 3.82 ± 0.38 S/m
- electrical conductivity ([1]; x1 = 0.3233): 2.63 ± 0.26 S/m
- electrical conductivity ([1]; x1 = 0.5083): 0.00974 ± 0.00097 S/m
- electrical conductivity ([1]; x1 = 1): 0.00695 ± 0.00069 S/m
- mass density ([1]; x1 = 0.000171): 1005 ± 7.4 kg/m3
- viscosity ([1]; x1 = 0.000171): 0.8974 ± 0.049 mPa·s
- mass density ([1]; x1 = 0.000362): 1007.5 ± 7.4 kg/m3
- viscosity ([1]; x1 = 0.000362): 0.8946 ± 0.049 mPa·s
- mass density ([1]; x1 = 0.000553): 1001 ± 7.3 kg/m3
- viscosity ([1]; x1 = 0.000553): 0.8979 ± 0.049 mPa·s
- mass density ([1]; x1 = 0.000754): 1004.5 ± 7.4 kg/m3
- viscosity ([1]; x1 = 0.000754): 0.8954 ± 0.049 mPa·s
- mass density ([1]; x1 = 0.001151): 1004 ± 7.4 kg/m3
- viscosity ([1]; x1 = 0.001151): 0.9008 ± 0.049 mPa·s
- mass density ([1]; x1 = 0.001575): 1004.7 ± 7.4 kg/m3
- viscosity ([1]; x1 = 0.001575): 0.9038 ± 0.049 mPa·s
- mass density ([1]; x1 = 0.002478): 1003 ± 7.3 kg/m3
- viscosity ([1]; x1 = 0.002478): 0.9234 ± 0.05 mPa·s
- mass density ([1]; x1 = 0.003359): 1004.2 ± 7.4 kg/m3
- viscosity ([1]; x1 = 0.003359): 0.9356 ± 0.051 mPa·s
- mass density ([1]; x1 = 0.004859): 1005 ± 7.3 kg/m3
- viscosity ([1]; x1 = 0.004859): 0.9802 ± 0.053 mPa·s
- mass density ([1]; x1 = 0.006386): 1006 ± 7.3 kg/m3
- viscosity ([1]; x1 = 0.006386): 0.9919 ± 0.054 mPa·s
- mass density ([1]; x1 = 0.008102): 1007.6 ± 7.4 kg/m3
- viscosity ([1]; x1 = 0.008102): 1.043 ± 0.056 mPa·s
- mass density ([1]; x1 = 0.009949): 1008.5 ± 7.3 kg/m3
- viscosity ([1]; x1 = 0.009949): 1.061 ± 0.057 mPa·s
- mass density ([1]; x1 = 0.01179): 1011.6 ± 7.4 kg/m3
- viscosity ([1]; x1 = 0.01179): 1.093 ± 0.058 mPa·s
- mass density ([1]; x1 = 0.01373): 1016.5 ± 7.4 kg/m3
- viscosity ([1]; x1 = 0.01373): 1.129 ± 0.06 mPa·s
- mass density ([1]; x1 = 0.01765): 1017.2 ± 7.4 kg/m3
- viscosity ([1]; x1 = 0.01765): 1.193 ± 0.063 mPa·s
- mass density ([1]; x1 = 0.02156): 1021.8 ± 7.4 kg/m3
- viscosity ([1]; x1 = 0.02156): 1.252 ± 0.066 mPa·s
- mass density ([1]; x1 = 0.02565): 1024 ± 7.4 kg/m3
- viscosity ([1]; x1 = 0.02565): 1.322 ± 0.069 mPa·s
- mass density ([1]; x1 = 0.02973): 1026 ± 7.4 kg/m3
- viscosity ([1]; x1 = 0.02973): 1.394 ± 0.073 mPa·s
- mass density ([1]; x1 = 0.03394): 1029.2 ± 7.4 kg/m3
- viscosity ([1]; x1 = 0.03394): 1.473 ± 0.076 mPa·s
- mass density ([1]; x1 = 0.04442): 1040 ± 7.4 kg/m3
- viscosity ([1]; x1 = 0.04442): 1.677 ± 0.086 mPa·s
- mass density ([1]; x1 = 0.05536): 1046.8 ± 7.4 kg/m3
- viscosity ([1]; x1 = 0.05536): 1.9 ± 0.097 mPa·s
- mass density ([1]; x1 = 0.06646): 1054.2 ± 7.4 kg/m3
- viscosity ([1]; x1 = 0.06646): 2.166 ± 0.11 mPa·s
- mass density ([1]; x1 = 0.07857): 1061.8 ± 7.4 kg/m3
- viscosity ([1]; x1 = 0.07857): 2.475 ± 0.12 mPa·s
- mass density ([1]; x1 = 0.09138): 1073 ± 7.4 kg/m3
- viscosity ([1]; x1 = 0.09138): 3.118 ± 0.15 mPa·s
- mass density ([1]; x1 = 0.1143): 1084.1 ± 7.3 kg/m3
- viscosity ([1]; x1 = 0.1143): 3.867 ± 0.19 mPa·s
- mass density ([1]; x1 = 0.1369): 1092 ± 7.2 kg/m3
- viscosity ([1]; x1 = 0.1369): 4.806 ± 0.23 mPa·s
- mass density ([1]; x1 = 0.1616): 1100 ± 7.1 kg/m3
- viscosity ([1]; x1 = 0.1616): 5.974 ± 0.28 mPa·s
- mass density ([1]; x1 = 0.1867): 1105.8 ± 6.9 kg/m3
- viscosity ([1]; x1 = 0.1867): 7.441 ± 0.33 mPa·s
- mass density ([1]; x1 = 0.211): 1110.2 ± 6.7 kg/m3
- viscosity ([1]; x1 = 0.211): 7.9 ± 0.35 mPa·s
- mass density ([1]; x1 = 0.2245): 1108.9 ± 6.6 kg/m3
- viscosity ([1]; x1 = 0.2245): 8.518 ± 0.37 mPa·s
- mass density ([1]; x1 = 0.3233): 1127.8 ± 5.9 kg/m3
- viscosity ([1]; x1 = 0.3233): 18 ± 0.72 mPa·s
- mass density ([1]; x1 = 0.5083): 1132.8 ± 4.6 kg/m3
- viscosity ([1]; x1 = 0.5083): 48 ± 2 mPa·s
- mass density ([1]; x1 = 1): 1166 ± 2.7 kg/m3
- viscosity ([1]; x1 = 1): 821 ± 310 mPa·s
- refractive index ([2]; x1 = 0.000171): 1.3329 ± 0.0051
- refractive index ([2]; x1 = 0.000362): 1.333 ± 0.0051
- refractive index ([2]; x1 = 0.000553): 1.3333 ± 0.0051
- refractive index ([2]; x1 = 0.000754): 1.3336 ± 0.0051
- refractive index ([2]; x1 = 0.001151): 1.334 ± 0.0051
- refractive index ([2]; x1 = 0.001575): 1.3346 ± 0.0051
- refractive index ([2]; x1 = 0.002478): 1.336 ± 0.0051
- refractive index ([2]; x1 = 0.003359): 1.3375 ± 0.0051
- refractive index ([2]; x1 = 0.004859): 1.34 ± 0.0051
- refractive index ([2]; x1 = 0.006386): 1.3421 ± 0.0051
- refractive index ([2]; x1 = 0.008102): 1.3452 ± 0.0051
- refractive index ([2]; x1 = 0.009949): 1.347 ± 0.0051
- refractive index ([2]; x1 = 0.01179): 1.3495 ± 0.0051
- refractive index ([2]; x1 = 0.01373): 1.352 ± 0.0051
- refractive index ([2]; x1 = 0.01765): 1.3574 ± 0.0051
- refractive index ([2]; x1 = 0.02156): 1.3635 ± 0.0051
- refractive index ([2]; x1 = 0.02565): 1.3676 ± 0.0051
- refractive index ([2]; x1 = 0.02973): 1.373 ± 0.0051
- refractive index ([2]; x1 = 0.03394): 1.3775 ± 0.0051
- refractive index ([2]; x1 = 0.04442): 1.3888 ± 0.0051
- refractive index ([2]; x1 = 0.05536): 1.3995 ± 0.005
- refractive index ([2]; x1 = 0.06646): 1.4084 ± 0.005
- refractive index ([2]; x1 = 0.07857): 1.4176 ± 0.005
- refractive index ([2]; x1 = 0.09138): 1.4315 ± 0.005
- refractive index ([2]; x1 = 0.1143): 1.4464 ± 0.005
- refractive index ([2]; x1 = 0.1369): 1.4574 ± 0.005
- refractive index ([2]; x1 = 0.1616): 1.4673 ± 0.005
- refractive index ([2]; x1 = 0.1867): 1.4742 ± 0.005
- refractive index ([2]; x1 = 0.211): 1.4831 ± 0.005

Structure (SMILES): C=CCn1cc[n+](C)c1.[Cl-] [1-allyl-3-methylimidazolium chloride]
- mass density [3]: 1166 ± 2.7 kg/m3
- viscosity [3]: 821 ± 310 mPa·s
- electrical conductivity ([3]; DDSJ-308A Conductometer): 0.00695 ± 0.00069 S/m
